Results published in ChEMBL document CHEMBL4011640, “Identification and Structure-Activity Relationships of Novel Compounds that Potentiate the Activities of Antibiotics in Escherichia coli” (J Med Chem, 2017).
Values after ≈ are worked out from the molar mass of the structure shown. Active and inactive are the calls of the source. The calls are words filed in the database; no cut-off is given here.

How the values were obtained:
Escherichia coli [1] = test: Disruption of transmembrane potential in Escherichia coli live cells harboring pores in outer membrane at 10 uM by DiSC3(5) probe-based fluorescence assay; type: functional
Escherichia coli [2] = test: Antimicrobial activity against Escherichia coli BW25113 after 24 hrs by two-fold broth microdilution assay; type: functional; details: BW25113, 24 h
Escherichia coli [3] = test: Antimicrobial activity against Escherichia coli harboring pores in outer membrane after 24 hrs by two-fold broth microdilution assay; type: functional
Escherichia coli [4] = test: Binding affinity to Escherichia coli AG100 His-tagged AcrA at 25 uM by SPR assay
Escherichia coli [5] = test: Inhibition of AcrA in Escherichia coli assessed as increase in HT dye uptake at 25 uM measured up to 600 secs by fluorescence method
Escherichia coli [6] = test: Antimicrobial activity against AcrAB-TolC knocked out Escherichia coli GD102 harboring […] pores in the outer membrane after 24 hrs by two-fold broth microdilution assay; type: functional; details: GD102, 24 h
[7] = Ratio of MIC for wild type Escherichia coli BW25113 to MIC for Escherichia coli harboring […] pores in the outer membrane; type: functional, cell membranes
Escherichia coli [8] = test: Binding affinity to Escherichia coli AG100 His-tagged AcrA at 50 uM by SPR assay
Escherichia coli BW25113 = test: Inhibition of AcrA efflux pump in Escherichia coli BW25113 assessed as compound concentration required for potentiation of novobiocin-induced antibacterial activity by 4 fold by checkerboard assay
Escherichia coli [9] = test: Ratio of MIC for wild type Escherichia coli harboring AcrAB-TolC deletion mutant to MIC for AcrAB-TolC knocked out Escherichia coli GD102 harboring […] pores in the outer membrane; type: functional
Escherichia coli [10] = test: Antimicrobial activity against Escherichia coli harboring AcrAB-TolC deletion mutant after 24 hrs by two-fold broth microdilution assay; type: functional
Escherichia coli [11] = test: Ratio of MIC for wild type Escherichia coli harboring […] pores in the outer membrane to MIC for AcrAB-TolC knocked out Escherichia coli GD102 harboring […] pores in the outer membrane; type: functional
Escherichia coli [12] = test: Inhibition of AcrA in Escherichia coli assessed as HT dye uptake at 25 uM measured up to 600 secs by fluorescence method relative to control
Escherichia coli [13] = test: Ratio of MIC for wild type Escherichia coli harboring […] pores in the outer membrane to MIC for wild type Escherichia coli harboring […] pores in the outer membrane in presence of novobiocin; type: functional
Escherichia coli [14] = test: Ratio of MIC for wild type Escherichia coli harboring […] pores in the outer membrane to MIC for wild type Escherichia coli harboring […] pores in the outer membrane in presence of erythromycin; type: functional
Escherichia coli [15] = test: Inhibition of AcrA in Escherichia coli assessed as increase in HT dye uptake at 25 uM measured up to 600 secs by fluorescence method relative to control
HEK293 = test: Cytotoxicity against HEK293 cells assessed as reduction in cell viability after overnight incubation by Cell Titer Glo assay; type: cell-based; details: Homo sapiens

In the case of CC(C)[C@@H]1NC(=O)[C@H](C)OC(=O)[C@@H](C(C)C)NC(=O)[C@@H](C(C)C)OC(=O)[C@H](C(C)C)NC(=O)[C@H](C)OC(=O)[C@@H](C(C)C)NC(=O)[C@@H](C(C)C)OC(=O)[C@H](C(C)C)NC(=O)[C@H](C)OC(=O)[C@@H](C(C)C)NC(=O)[C@@H](C(C)C)OC1=O, the Activity (Escherichia coli [1]; TDE = time-dependent effect) is reported as “Tde”.
In the case of O=C(Nc1ccc(C2=NCCN2)cc1)[C@H]1CC[C@H](C(=O)Nc2ccc(C3=NCCN3)cc2)CC1, the MIC (Escherichia coli [2]) is reported as 50 µM (≈ 22.9 µg/mL), the MIC (Escherichia coli [3]) is reported as 25 µM (≈ 11.5 µg/mL) and the Activity (Escherichia coli [4]) is reported as “inactive”. For the same compound, the Activity (Escherichia coli [5]) was “Active”, the MIC (Escherichia coli [6]) was 6.25 µM (≈ 2.87 µg/mL) and the Ratio [7] was 2. The Activity (Escherichia coli [8]) was “inactive”, the Activity (Escherichia coli BW25113) was > 400 µM and the Ratio (Escherichia coli [9]) was 2. The MIC (Escherichia coli [10]) was 12.5 µM (≈ 5.73 µg/mL).
With O=C(Nc1ccc(C2=NCCN2)cc1)c1ccc(C(=O)Nc2ccc(C3=NCCN3)cc2)c(F)c1 the Activity (Escherichia coli BW25113) was 100 µM.
NCc1ccc(NC(=O)c2ccc(C(=O)Nc3ccc(CN)cc3)cc2)cc1 showed an Activity (Escherichia coli BW25113) of 50 µM.
In the case of Cc1cc(C(=O)Nc2ccc(C3=NCCN3)cc2)ccc1C(=O)Nc1ccc(C2=NCCN2)cc1, the Activity (Escherichia coli BW25113) is reported as 25 µM.
For N#Cc1cccc(NC(=O)c2ccc(C(=O)Nc3cccc(C#N)c3)c(Cl)c2)c1, the Activity (Escherichia coli BW25113) was > 400 µM.
For Cn1cnnc1-c1ccc(NC(=O)c2ccc(C(=O)Nc3ccc(-c4nncn4C)cc3)c(Cl)c2)cc1, the Activity (Escherichia coli BW25113) was > 400 µM.
For O=C(Nc1ccc(C2=NCCN2)cc1)c1ccc2cc(Br)ccc2c1, the MIC (Escherichia coli [2]) was > 400 µM, the MIC (Escherichia coli [3]) was 200 µM (≈ 78.9 µg/mL) and the Activity (Escherichia coli [4]) was “Active”. The Activity (Escherichia coli [5]) was “Active”, the Ratio (Escherichia coli [11]) was 16 and the MIC (Escherichia coli [6]) was 12.5 µM (≈ 4.93 µg/mL). For the same compound, the Ratio [7] was 4, the Activity (Escherichia coli BW25113) was 25 µM and the fold change (FC) (Escherichia coli [12]) was 16. It also gave a Ratio (Escherichia coli [13]) of 16, an MIC (Escherichia coli [10]) of 25 µM (≈ 9.86 µg/mL) and a Ratio (Escherichia coli [14]) of 16. For the same compound, the fold change (FC) (Escherichia coli [15]) was 1.6.
With O=C(CCC(=O)Nc1ccc(C2=NCCN2)cc1)Nc1ccc(C2=NCCN2)cc1 the Activity (Escherichia coli BW25113) was > 400 µM.
For O=C(Nc1ccc(C2=NCCN2)cc1)c1ccc(C(=O)Nc2ccc(C3=NCCN3)cc2)c(Cl)c1, the MIC (Escherichia coli [2]) was > 200 µM, the MIC (Escherichia coli [3]) was 100 µM (≈ 48.7 µg/mL) and the Activity (Escherichia coli [4]) was “Active”. For the same compound, the Activity (Escherichia coli [5]) was “Active”, the Ratio (Escherichia coli [11]) was 8 and the MIC (Escherichia coli [6]) was 12.5 µM (≈ 6.09 µg/mL). For the same compound, the Ratio [7] was 4, the Activity (Escherichia coli [1]) was “inactive” and the Activity (Escherichia coli [8]) was “Active”. For the same compound, the Activity (Escherichia coli BW25113) was 25 µM, the fold change (FC) (Escherichia coli [12]) was 3.2 and the Ratio (Escherichia coli [13]) was 16. It also gave an MIC (Escherichia coli [10]) of 25 µM (≈ 12.2 µg/mL) and a Ratio (Escherichia coli [14]) of 8.
With O=C(/C=C/c1ccc(Cl)cc1)Nc1ccc(C2=NCCN2)cc1 the MIC (Escherichia coli [2]) was 200 µM (≈ 65.2 µg/mL), the MIC (Escherichia coli [3]) was 100 µM (≈ 32.6 µg/mL) and the Activity (Escherichia coli [5]) was “Active”. The Ratio (Escherichia coli [11]) was 4, the MIC (Escherichia coli [6]) was 25 µM (≈ 8.14 µg/mL) and the Ratio [7] was 2. The Activity (Escherichia coli BW25113) was 25 µM, the fold change (FC) (Escherichia coli [12]) was 2.5 and the Ratio (Escherichia coli [13]) was 8. The MIC (Escherichia coli [10]) was 50 µM (≈ 16.3 µg/mL) and the Ratio (Escherichia coli [14]) was 4.
In the case of Nc1ccc(C2=NCCN2C(=O)c2ccc(C(=O)N3CCN=C3c3ccc(N)cc3)c(Cl)c2)cc1, the Activity (Escherichia coli BW25113) is reported as 50 µM.
With O=C(/C=C/c1ccccc1Cl)Nc1ccc(C2=NCCN2)cc1 the IC50 (HEK293) was 10.5 µM, the MIC (Escherichia coli [2]) was > 200 µM and the MIC (Escherichia coli [3]) was 400 µM (≈ 130 µg/mL). The Activity (Escherichia coli [4]) was “Active”, the Activity (Escherichia coli [5]) was “Active” and the Ratio (Escherichia coli [11]) was 4. For the same compound, the MIC (Escherichia coli [6]) was 100 µM (≈ 32.6 µg/mL), the Ratio [7] was 1 and the Activity (Escherichia coli [1]) was “inactive”. It also gave an Activity (Escherichia coli BW25113) of 25 µM, a fold change (FC) (Escherichia coli [12]) of 9.7 and a Ratio (Escherichia coli [13]) of 32. The MIC (Escherichia coli [10]) was 200 µM (≈ 65.2 µg/mL) and the Ratio (Escherichia coli [14]) was 8.
With O=C(Nc1ccc(NC(=O)c2ccc(C3=NCCN3)cc2)cc1)c1ccc(C2=NCCN2)cc1 the MIC (Escherichia coli [2]) was 50 µM (≈ 22.6 µg/mL), the MIC (Escherichia coli [3]) was 50 µM (≈ 22.6 µg/mL) and the Activity (Escherichia coli [4]) was “Active”. The Activity (Escherichia coli [5]) was “inactive”, the MIC (Escherichia coli [6]) was 12.5 µM (≈ 5.66 µg/mL) and the Activity (Escherichia coli [8]) was “Active”. The Activity (Escherichia coli BW25113) was 12.5 µM and the MIC (Escherichia coli [10]) was 25 µM (≈ 11.3 µg/mL).
With O=C(NCc1ccccc1)c1ccc(C(=O)Nc2ccc(C3=NCCN3)cc2)cc1 the Activity (Escherichia coli BW25113) was > 200 µM.
With O=C(Nc1cccc(C2=NCCN2)c1)c1ccc(C(=O)Nc2cccc(C3=NCCN3)c2)cc1 the MIC (Escherichia coli [2]) was 200 µM (≈ 90.5 µg/mL), the MIC (Escherichia coli [3]) was 100 µM (≈ 45.3 µg/mL) and the Activity (Escherichia coli [4]) was “Active”. For the same compound, the Activity (Escherichia coli [5]) was “Active”, the Ratio (Escherichia coli [11]) was 4 and the MIC (Escherichia coli [6]) was 25 µM (≈ 11.3 µg/mL). It also gave a Ratio [7] of 2, an Activity (Escherichia coli BW25113) of 50 µM and a fold change (FC) (Escherichia coli [12]) of 1.7. It also gave a Ratio (Escherichia coli [13]) of 4, an MIC (Escherichia coli [10]) of 50 µM (≈ 22.6 µg/mL) and a Ratio (Escherichia coli [14]) of 4.
For O=C(Nc1ccc(S(=O)(=O)O)cc1)c1ccc(C(=O)Nc2ccc(S(=O)(=O)O)cc2)cc1, the Activity (Escherichia coli BW25113) was > 100 µM.
O=C(Nc1ccc(C2=NCCN2)cc1)c1ccc(C(=O)Nc2ccc(C3=NCCN3)cc2)c([N+](=O)[O-])c1 showed an Activity (Escherichia coli BW25113) of 25 µM.
With CC(C)c1ccc(/C=C/C(=O)Nc2ccc(C3=NCCN3)cc2)cc1 the IC50 (HEK293) was > 100 µM, the MIC (Escherichia coli [2]) was 100 µM (≈ 33.3 µg/mL) and the MIC (Escherichia coli [3]) was 50 µM (≈ 16.7 µg/mL). For the same compound, the Activity (Escherichia coli [4]) was “Active”, the Activity (Escherichia coli [5]) was “Active” and the Ratio (Escherichia coli [11]) was 2. For the same compound, the MIC (Escherichia coli [6]) was 25 µM (≈ 8.34 µg/mL), the Ratio [7] was 2 and the Activity (Escherichia coli [1]) was “inactive”. It also gave an Activity (Escherichia coli BW25113) of 50 µM, a fold change (FC) (Escherichia coli [12]) of 6.3 and a Ratio (Escherichia coli [13]) of 8. It also gave an MIC (Escherichia coli [10]) of 25 µM (≈ 8.34 µg/mL) and a Ratio (Escherichia coli [14]) of 8.
